Where two headings read alike, the source gives them in different places.
Experiments:
[1] = mouse, in vivo, 25 mg/kg
From the text: Intraventricular infusion: Under general anaesthesia obtained with Ketamine/Xylazine, Alzet osmotic pumps (http://www.alzet.com/products/guide_to_use/pump_selection.ht ml) were implanted subcutaneously on the back; a catheter leading from the pump reached the cranial vault, where it was connected to a connector (Brain Kit 3, Alzet) stereotaxically implanted in the cranium until reaching the lateral ventricle. These pumps are capable of infusing their content at a constant speed for 1-4 weeks.
We then decided to look for the maximum tolerable dose by intraventricular administration of everolimus at concentrations 10 times higher than those shown in Table 1: A=25 mg/Kg, B=12.5 mg/Kg, C=[…].
Therefore, that dose was ruled out and the mice were sacrificed. […] For the subsequent assessment of therapeutic effectiveness in the different animal models, dose B (12.5 mg/Kg) was selected.

[2] = Blood and brain concentrations (LC-MS) in mice treated intraperitoneally for a week with graduated doses; format: in vivo, CD1 mice; details: for concentration at 1 week: CD1, mouse
Protocol: A quantitative analysis of everolimus in blood and tissue samples was performed with the isotopic dilution method using the LC-MS technique. The chromatographic system was the following: Agilent 1290 Infinity HPLC equipped with a binary pump and HiP Auto Sampler model G4226A. The injection volume was 2 μL, the analytical column used was a Phenomenex Kinetics PFP UHPLC column (Phenomenex, Milan, Italy) […], 1.7 μm, 100 Å, temperature controlled at 55° C. A gradient elution was performed using as solvent A: water with 5 mM ammonium formiate, solvent B: methanol with 0.1% formic acid. The elution profile was the following: solvent A 30%/solvent B 70% for 3 minutes, solvent A 1%/solvent B 99% from 3 to 6 minutes, at a flow velocity of 0.25 mL/min. This setup enabled an elution time of 2.5 minutes. Every injection was preceded by a cycle of washing the injector system with methanol.
Mass spectrometry was conducted using a Q-TOF MS detector model G6540A (Agilent, Germany) equipped with a Dual AJS ESI (electrospray ionization interface) system. The instrument parameters were the following: sheath gas flow: […], sheath gas temperature: 300° C., gas flow: 6 L/min, gas temperature: 300° C., nebulizer pressure: 35 psi, ion spray voltage: 5500 V.
Both everolimus and the isotopic internal standard were detected as ammonium adducts in the positive ion mode.
Everolimus was extracted from whole blood in 1 mL of a methanol solution containing 10% ammonium acetate in order to enable precipitation of most of the serum protein.
The internal standard used was isotopic 4d-2C^13-everolimus added to the extraction solution at a concentration of 200 ng/mL.
The blood samples were freeze-dried and subsequently extracted. The extraction process was carried out in a sonication bath for approx. 10 minutes to ensure complete haemolysis and release of the drug from the cell material.
The samples were centrifuged (10 minutes, 4000 rpm, 10° C.) and the supernatant was then separated from the pellet.
The solutions thus obtained were then purified by means of HybridSPE®-Phospholipid solid-phase extraction cartridges with a total volume of 1 ml (Sigma Aldrich, Milan) to eliminate the excess lipid material potentially present. The process was preliminarily validated both for everolimus and for the internal standard in solution and in matrices, providing a yield >98% w/v.
The process of extraction from brain samples, divided into right and left hemispheres, was similar to the one for whole blood. The tissue samples were weighed and subsequently freeze-dried. After freeze-drying the samples were finely chopped to facilitate subsequent extraction. 1 mL of the methanol solution was then added to 1% v/v of ammonium formiate with 200 ng/mL of internal standard. The samples were then subjected to 10 minutes of sonication and vortexed to ensure complete extraction of the drug. Then followed centrifugation (10 minutes, 4000 rpm, 10° C.) and the supernatant was separated from the pellet. As previously described, the solutions were purified by means of HybridSPE®-Phospholipid solid-phase extraction cartridges with a total volume of 1 ml (Sigma Aldrich, Milan) to eliminate the excess lipid material. The samples were then immediately submitted to LC-MS analysis.

[3] = cited from earlier work
[4] = test system: AD triple transgenic mouse (3xTg-AD); test: Alzheimer's disease mouse model, intraventricular osmotic pumps; format: in vivo, 3xTg-AD mouse; details: local application, same dosage as in EAE mice
From the text: We carried out trials in mouse models exemplifying 3 families of neurological diseases: • EAE (Experimental Autoimmune Encephalomyelite, model of neuroinflammatory disease): SJL/j mice were immunized with two subcutaneous injections, performed 7 days apart, of proteolipid protein (PLP139-151), Freund's adjuvant and inactivated Mycobacterium tuberculosis. The disease severity was rated with a clinical score: 0=healthy; 1=tail weakness; 2=rear limb ataxia and/or paresis; 3=rear limb paralysis and/or front limb paresis; 4=tetraplegia; 5=state of agony or death • AD (Alzheimer's Disease, model of neurodegenerative disease): AD triple transgenic mouse (3xTg-AD) supplied by Jackson Laboratories (http://jaxmice.jax.org/strain/004807.html) Their memory was evaluated using the Passive Avoidance and Radial Maze tests; • TSC (Tuberous sclerosis complex, model of neuro-oncologic disease): TSC1 mouse with TSC1 gene within a flox cassette, supplied by Jackson Laboratories (http://jaxmice.jax.org/strain/005680.html)
We applied intraventricular catheters and everolimus-secreting osmotic pumps implanted subcutaneously on the back of 12 AD mice for 4 weeks. We infused a vehicle to an equal number of mice. We injected everolimus into 10 healthy mice and, finally, the vehicle into another 10. The appropriate pump was replaced after 4 weeks and kept in place for another 4. […]

Question: Which Tolerability observations [1] does the source give for CO[C@H]1C[C@@H]2CC[C@@H](C)[C@@](O)(O2)C(=O)C(=O)N2CCCC[C@H]2C(=O)O[C@H]([C@H](C)C[C@@H]2CC[C@@H](OCCO)[C@H](OC)C2)CC(=O)[C@H](C)/C=C(\C)[C@@H](O)[C@@H](OC)C(=O)[C@H](C)C[C@H](C)/C=C/C=C/C=C/1C [everolimus] here?
Answer: Its Tolerability observations is “reduction in spontaneous motility and a very slight weight reduction”.

Question: What about the concentration at 1 week ([2]; brain, intraperitoneal, 0.6125 mg/Kg, heading: Brain conc 1, one week, lowest of 3 dosages (C=0.6125 mg/Kg)) of the same compound?
Answer: The concentration at 1 week was 46 ng/g.

Question: What about the “Level in the blood” value ([2]; all 3 dosages of the one-week study) of the same compound?
Answer: Its value is “did not reach measurable levels in the blood”.

Question: What about the concentration at 1 week ([2]; female, brain, left hemisphere (sx), ip, females, 0.6125 mg/kg i.p. for a week, normalized to weight of a hemisphere, read-out: Brain concentration, hemisphere sx (converted)) of the same compound?
Answer: The concentration at 1 week was 48 ng/g.

Question: What about the concentration at 1 week ([2]; female, brain, left hemisphere (sx), ip, females, 1.25 mg/kg i.p. for a week, normalized to weight of a hemisphere, read-out: Brain concentration, hemisphere sx (converted)) of the same compound?
Answer: The concentration at 1 week was 80 ng/g.

Question: And the concentration at 1 week ([2]; female, brain, left hemisphere (sx), ip, females, 2.5 mg/kg i.p. for a week, normalized to weight of a hemisphere, read-out: Brain concentration, hemisphere sx (converted))?
Answer: The concentration at 1 week was 152 ng/g.

Question: And the concentration at 1 week ([2]; female, brain, right hemisphere (dx), ip, females, 0.6125 mg/kg i.p. for a week, normalized to weight of a hemisphere, read-out: Brain concentration, hemisphere dx (converted))?
Answer: Its concentration at 1 week is 44 ng/g.

Question: And the concentration at 1 week ([2]; female, brain, right hemisphere (dx), ip, females, 1.25 mg/kg i.p. for a week, normalized to weight of a hemisphere, read-out: Brain concentration, hemisphere dx (converted))?
Answer: Its concentration at 1 week is 72 ng/g.

Question: And the concentration at 1 week ([2]; female, brain, right hemisphere (dx), ip, females, 2.5 mg/kg i.p. for a week, normalized to weight of a hemisphere, read-out: Brain concentration, hemisphere dx (converted))?
Answer: Its concentration at 1 week is 132 ng/g.

Question: What about the concentration at 1 week ([2]; female, whole blood, ip, females, 0.6125 mg/kg intraperitoneally for a week, n = 2, read-out: Blood concentration) of the same compound?
Answer: The concentration at 1 week was 15 ± 3 ng/mL.

Question: And the concentration at 1 week ([2]; female, whole blood, ip, females, 1.25 mg/kg intraperitoneally for a week, n = 2, read-out: Blood concentration)?
Answer: The concentration at 1 week was 25 ± 5 ng/mL.

Question: What about the concentration at 1 week ([2]; female, whole blood, ip, females, 2.5 mg/kg intraperitoneally for a week, n = 2, read-out: Blood concentration) of the same compound?
Answer: The concentration at 1 week was 46 ± 4 ng/mL.

Question: What about the concentration at 1 week ([2]; male, brain, left hemisphere (sx), ip, males, 0.6125 mg/kg i.p. for a week, normalized to weight of a hemisphere, read-out: Brain concentration, hemisphere sx (converted)) of the same compound?
Answer: The concentration at 1 week was 36 ng/g.

Question: And the concentration at 1 week ([2]; male, brain, left hemisphere (sx), ip, males, 1.25 mg/kg i.p. for a week, normalized to weight of a hemisphere, read-out: Brain concentration, hemisphere sx (converted))?
Answer: Its concentration at 1 week is 100 ng/g.

Question: And the concentration at 1 week ([2]; male, brain, left hemisphere (sx), ip, males, 2.5 mg/kg i.p. for a week, normalized to weight of a hemisphere, read-out: Brain concentration, hemisphere sx (converted))?
Answer: Its concentration at 1 week is 176 ng/g.

Question: What about the concentration at 1 week ([2]; male, brain, right hemisphere (dx), ip, males, 0.6125 mg/kg i.p. for a week, normalized to weight of a hemisphere, read-out: Brain concentration, hemisphere dx (converted)) of the same compound?
Answer: Its concentration at 1 week is 56 ng/g.

Question: And the concentration at 1 week ([2]; male, brain, right hemisphere (dx), ip, males, 1.25 mg/kg i.p. for a week, normalized to weight of a hemisphere, read-out: Brain concentration, hemisphere dx (converted))?
Answer: Its concentration at 1 week is 148 ng/g.

Question: And the concentration at 1 week ([2]; male, brain, right hemisphere (dx), ip, males, 2.5 mg/kg i.p. for a week, normalized to weight of a hemisphere, read-out: Brain concentration, hemisphere dx (converted))?
Answer: Its concentration at 1 week is 208 ng/g.

Question: And the concentration at 1 week ([2]; male, whole blood, ip, males, 0.6125 mg/kg intraperitoneally for a week, n = 2, read-out: Blood concentration)?
Answer: Its concentration at 1 week is 16 ± 4 ng/mL.

Question: And the concentration at 1 week ([2]; male, whole blood, ip, males, 1.25 mg/kg intraperitoneally for a week, n = 2, read-out: Blood concentration)?
Answer: Its concentration at 1 week is 42 ± 4 ng/mL.

Question: And the concentration at 1 week ([2]; male, whole blood, ip, males, 2.5 mg/kg intraperitoneally for a week, n = 2, read-out: Blood concentration)?
Answer: The concentration at 1 week was 59 ± 3 ng/mL.

Question: What about the “Blood concentration (LC-MS)” value ([2]; mice treated with intraperitoneal administration) of the same compound?
Answer: Its value is “in the therapeutic range”.

Question: What about the half-life [3] of the same compound?
Answer: Its half-life is 28 to 32 h.

Question: What about the “Pharmacological activity observed in AD mice” value [4] of the same compound?
Answer: The value was “an increase in autophagy”.

Reference: patent US20160324770A1, “INTRATHECAL ADMINISTRATION, PREFERABLY INTRAVENTRICULAR, OF MTOR INHIBITORS FOR THE THERAPY OF SOME NEURODEGENERATIVE, NEUROINFLAMMATORY AND NEURO-ONCOLOGIC DISEASES” (priority 2012, published 2016)
